Assay [1] has as its system A-375. Put plainly: A375 melanoma cell viability reduction, dose response, counter-screen for MITF modulator project, cherry-pick samples, set 2 (AID 540335). Format: functional, cell-based. The conditions noted are these: Homo sapiens.
The nature of assay [2]: Luminescence Cell-Based Dose Confirmation HTS to Identify Activators of 5'UTR Stem-Loop Driven Alpha-Synuclein mRNA Translation in H4 Neuroglioblastoma Cells. [Related pubchem assays: 1829 (Project Summary), 1814 (Primary HTS)]. Format: functional.
Assay [3] deals with Streptococcus sp. 'group A'. Put plainly: growth inhibition of control SK(-) GAS strain, dose response, counter-screen for streptokinase expression inhibitor project, luminescence, kanamycin, BacTiterGlo, confirmation (AID 1900). Format: functional, organism-based.
The subject of assay [4] is A-375. Put plainly: MITF: Counter assay: A375 proliferation Measured in Cell-Based System Using Plate Reader - 2084-03_Inhibitor_Dose_DryPowder_Activity. [Related pubchem assays (depositor defined):AID488944]. Type of assay: functional. The conditions noted are these: Homo sapiens.
The nature of assay [5]: Luminescence Cell-Based Dose Response HTS to Identify Activators of Luciferase Translation or Activity in H4 […] Cells. [Related pubchem assays: 1829 (Project Summary), 1814 (Primary HTS)]. Type of assay: functional.
The next assay has as its target T1, Streptokinase A (Streptococcus pyogenes serotype M1, UniProt P10520).
T1 sequence (P10520 whole entry): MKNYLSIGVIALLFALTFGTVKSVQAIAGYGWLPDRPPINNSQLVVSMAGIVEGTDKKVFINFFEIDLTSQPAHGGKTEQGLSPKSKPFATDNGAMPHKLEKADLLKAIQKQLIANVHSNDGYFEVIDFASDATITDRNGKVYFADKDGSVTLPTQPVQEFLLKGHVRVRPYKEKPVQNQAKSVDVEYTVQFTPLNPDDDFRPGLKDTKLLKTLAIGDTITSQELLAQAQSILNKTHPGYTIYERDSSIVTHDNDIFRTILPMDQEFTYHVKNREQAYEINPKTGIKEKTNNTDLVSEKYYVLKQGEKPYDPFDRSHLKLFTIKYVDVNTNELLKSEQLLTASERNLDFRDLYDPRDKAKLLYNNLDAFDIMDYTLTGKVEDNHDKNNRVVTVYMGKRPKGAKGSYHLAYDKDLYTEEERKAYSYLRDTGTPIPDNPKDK
Put plainly: S. pyogenes streptokinase expression inhibitors, potency, dose response, plasminogen activation absorbance, OD405 (AID 1914).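 Further: secreted streptokinase activity via plasminogen activation per viability signal from cell pellet.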 Format: functional, Streptococcus pyogenes M1 GAS.

The next assay relates to Streptococcus. Put plainly: Group A Streptococcus viability loss, dose response, counter-screen for streptokinase expression inhibitor project, luminescence, BacTiterGlo (AID 1915).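 Further: potency for reduction of bacterial viability or growth.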 Type of assay: functional, organism-based.
For another assay, the target named is Hexokinase-1 (Homo sapiens, UniProt P19367). Put plainly: SAR analysis of small molecule inhibitors of hexokinase domain containing I (HKDC1) in the hexokinase 1 selectivity assay. [Related pubchem assays (depositor defined):AID493160, AID493190]. Type of assay: functional.
The target in a further assay is Hexokinase HKDC1 (Homo sapiens, UniProt Q2TB90). Put plainly: SAR analysis of small molecule inhibitors of hexokinase domain containing I (HKDC1). [Related pubchem assays (depositor defined):AID493160, AID493190]. Type of assay: functional.
Another assay addresses Beta-arrestin-1 (Homo sapiens, UniProt P49407). Put plainly: inhibitors of arrestin peptide binding to AP2, dose response, biochemical, cherry pick 1, beta2-adaptin appendage, flow cytometry (AID 588783). Type of assay: functional.
The test system of assay [6] is BJ. Put plainly: cytotoxicity toward Ras-transformed BJeLR fibroblasts, dose response, cell-based, alamar blue fluorescence, cherrypicked samples (AID 2631).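 Further: confirmatory dose-response assay in RAS-dependent BJ fibroblasts engineered with TERT, LT and ST, with cytotoxicity read by fluorescence.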 Type of assay: functional. The conditions noted are these: Homo sapiens.
Assay [7] addresses Sphingosine 1-phosphate receptor 1 (Homo sapiens, UniProt P21453). Type of assay: functional.
Assay [8] deals with Luciferin 4-monooxygenase (Photinus pyralis, UniProt P08659). Put plainly: firefly luciferase enzyme inhibitors, dose response, biochemical, luminescence (AID 1891).
In assay [9] the test system is BJ. Put plainly: cytotoxicity toward BJ-TERT fibroblasts, dose response, cell-based, RAS-independent, luminescence (AID 1933). Type of assay: functional. The conditions noted are these: Homo sapiens.
Assay [10] concerns the target T2, Voltage-gated N-type calcium channel alpha-1B subunit/Amyloid beta A4 precursor protein-binding family A member 1 (Homo sapiens, UniProt Q00975+Q02410). Format: protein assay.
For assay [11], the target named is Heat shock protein HSP 90-alpha (Homo sapiens, UniProt P07900). Type of assay: functional, organism-based.
The next assay concerns the target Beta-galactosidase (Escherichia coli, UniProt Q8VNN2). Format: functional.
The nature of assay [12]: cytotoxicity in HEK-293T cells, dose response, cytotoxicity control for TCR NF-kB inhibitor project, luminescence, T-cell screen hits (AID 489026).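 Further: cells exposed to compound about 14 hours before the viability readout.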 Format: functional, cell-based.
A short description of assay [13]: Luminescence Cell-Based Dose Confirmation HTS to Identify Inhibitors of Platelet Dense Granule Release. [Related pubchem assays: 1663 (Primary HTS), 1678 (Summary of Project)]. Type of assay: functional.
Assay [14] deals with T3, Sphingosine 1-phosphate receptor 4 (Homo sapiens, UniProt O95977).
T3 sequence (O95977 whole entry): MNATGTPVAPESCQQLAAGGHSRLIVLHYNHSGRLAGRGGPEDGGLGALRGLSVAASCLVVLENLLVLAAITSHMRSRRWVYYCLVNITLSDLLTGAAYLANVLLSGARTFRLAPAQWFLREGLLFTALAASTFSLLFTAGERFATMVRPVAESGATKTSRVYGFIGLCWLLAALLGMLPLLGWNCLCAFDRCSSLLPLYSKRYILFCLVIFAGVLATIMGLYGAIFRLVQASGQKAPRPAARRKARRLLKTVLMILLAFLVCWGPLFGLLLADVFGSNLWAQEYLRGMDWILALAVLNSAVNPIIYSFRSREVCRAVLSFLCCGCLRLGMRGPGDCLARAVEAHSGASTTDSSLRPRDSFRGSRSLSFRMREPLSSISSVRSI
Put plainly: Fluorescence dose response cell-based high throughput screening assay for antagonists of the Sphingosine 1-Phosphate Receptor 4 (S1P4). [Related pubchem assays: 1524 (Confirmation in triplicates.), 1510 (Primary screen.)]. Format: functional.

The target in assay [15] is Induced myeloid leukemia cell differentiation protein Mcl-1 (Homo sapiens, UniProt Q07820). Format: functional.
Assay [16] addresses DNA dC->dU-editing enzyme APOBEC-3G (Homo sapiens, UniProt Q9HC16). Put plainly: Dose Response confirmation of small molecule APOBEC3G DNA Deaminase Inhibitors via a fluorescence-based single-stranded DNA deaminase assay. [Related pubchem assays (depositor defined):AID493012, AID493028]. Type of assay: functional.
Another assay deals with Vero. Put plainly: Vero cell cytotoxicity, cytotoxicity control for flavivirus capping enzyme inhibitors (AID 588742). Type of assay: functional. The note with it: Chlorocebus sabaeus.
The next assay has as its system INS1. Put plainly: beta cell apoptosis inhibitors, cytokine rescue, dose response, luminescence, retest (AID 449756).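 Further: cell death triggered by IL-1 beta plus TNF-alpha plus IFN-gamma mixture; protective hits raise ATP signal compared with cytokine alone wells.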 Type of assay: functional, cell-based. The note with it: Rattus norvegicus.
Another assay deals with Beta Lactamase (Pseudomonas aeruginosa, UniProt Q932Y6). Put plainly: beta-lactamase reporter inhibitor potency, dose response, artefact control for TLR9-MyD88 binding inhibitor project, BLA reporter cells, FRET fluorescence (AID 588341).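 Further: cell based assay in CHO-K1 cells stably expressing beta-lactamase.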 Type of assay: cell-based.
Assay [17] concerns the target T4, Heat shock factor protein 1 (Mus musculus, UniProt P38532).
T4 sequence (P38532 whole entry): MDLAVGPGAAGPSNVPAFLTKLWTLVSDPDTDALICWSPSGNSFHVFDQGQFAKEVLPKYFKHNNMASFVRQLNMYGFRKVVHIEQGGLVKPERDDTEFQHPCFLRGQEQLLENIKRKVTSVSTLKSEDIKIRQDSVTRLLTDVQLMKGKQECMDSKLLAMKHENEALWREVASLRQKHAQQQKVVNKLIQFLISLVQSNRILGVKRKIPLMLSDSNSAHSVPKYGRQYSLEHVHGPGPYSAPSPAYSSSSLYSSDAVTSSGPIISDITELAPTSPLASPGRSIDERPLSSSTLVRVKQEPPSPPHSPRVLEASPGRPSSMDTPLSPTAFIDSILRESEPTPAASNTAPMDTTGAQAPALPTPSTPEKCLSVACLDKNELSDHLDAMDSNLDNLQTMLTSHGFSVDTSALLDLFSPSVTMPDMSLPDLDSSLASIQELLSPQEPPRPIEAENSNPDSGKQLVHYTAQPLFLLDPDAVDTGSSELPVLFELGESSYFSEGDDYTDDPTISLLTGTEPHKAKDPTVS
Put plainly: inhibition of MG132-induced HSE-luciferase signal, confirmation, cell-based, NIH3T3, luminescence, dose retest (AID 2382).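 Further: NIH3T3 fibroblasts with HSF1-driven luciferase reporter stressed by proteasome inhibitor MG132; luminescence from HSF1-driven luciferase expression after 8 hours of MG132 stress.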 Type of assay: functional.

Assay [18] deals with BJ. Put plainly: cytotoxicity toward BJ-TERT-LT-ST fibroblasts, dose response, cell-based, RAS-independent, luminescence (AID 1935).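 Further: BJ fibroblasts immortalized with TERT plus LT and ST oncogenes.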 The note with it: Homo sapiens. Type of assay: functional.
Assay [19] concerns the target T5, Kappa-type opioid receptor (Homo sapiens, UniProt P41145). Format: functional.
In assay [20] the test system is BJ. Put plainly: cells. Format: functional, cell-based. The note with it: Homo sapiens.
Assay [21] concerns the target T2, Voltage-gated N-type calcium channel alpha-1B subunit/Amyloid beta A4 precursor protein-binding family A member 1. Type of assay: protein assay. The source holds these as a separate data set.
In a further assay the test system is H4. Put plainly: Luminescence Cell-Based Dose Response HTS to Identify Activators of 5'UTR Stem-Loop Driven Prion Protein mRNA Translation in H4 Neuroglioblastoma Cells. [Related pubchem assays: 1829 (Project Summary), 1814 (Primary HTS)]. Format: functional. The note with it: Homo sapiens.
Assay [22] can be described thus: cytotoxicity toward DRD oncogenic fibroblasts, dose response, cell-based, non-viral oncogenic, luminescence (AID 1934). Format: functional. The note with it: Homo sapiens.
For a further assay, the system named is CHO. Put plainly: cytotoxicity in TLR9-MyD88 CHO cells, dose response, cytotoxicity control for TLR9-MyD88 binding inhibitor project, cell-based, luminescence (AID 588339).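 Further: CHO cells stably coexpressing TLR9 and MyD88 fusions from primary screen; compound exposure lasted 48 hours before viability readout.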 Type of assay: functional, hamster. The conditions noted are these: Cricetulus griseus.
The target of assay [23] is Glucose-6-phosphate 1-dehydrogenase (Homo sapiens, UniProt P11413). Put plainly: human G6PD enzyme inhibitors, dose response, selectivity assay for P. falciparum G6PD inhibitor project, biochemical, fluorescence (AID 504792). Format: functional.
The target in assay [24] is T5, Kappa-type opioid receptor. Format: functional. This is another data set of the same source.
The next assay has as its target Genome polyprotein (dengue virus type 2, UniProt P29990). Put plainly: Dengue-2 NS5 methyltransferase inhibitors, primary screen, biochemical, confirmation dose response (AID 588689). Type of assay: functional.
For a further assay, the target named is DNA topoisomerase (Yersinia pestis, UniProt A0A2S9PM60). Put plainly: Y. pestis Topo-I inhibitors, cleavage product readout, dose response, biochemical, cherry-pick (AID 588525).

The source made the active and inactive calls. Bounds are passed on as bounds.

T5 sequence (P41145 whole entry): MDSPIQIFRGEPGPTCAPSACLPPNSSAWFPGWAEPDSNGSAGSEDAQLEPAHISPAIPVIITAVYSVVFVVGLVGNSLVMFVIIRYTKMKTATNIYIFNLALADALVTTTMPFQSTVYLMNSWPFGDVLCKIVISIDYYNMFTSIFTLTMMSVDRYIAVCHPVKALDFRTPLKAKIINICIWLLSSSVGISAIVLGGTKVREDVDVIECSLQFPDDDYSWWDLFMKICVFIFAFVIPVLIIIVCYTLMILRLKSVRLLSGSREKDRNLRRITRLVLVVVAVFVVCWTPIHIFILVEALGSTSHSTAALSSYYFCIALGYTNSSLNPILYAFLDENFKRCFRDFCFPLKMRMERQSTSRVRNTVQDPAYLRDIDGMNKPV
T2 sequence (Q00975 whole entry): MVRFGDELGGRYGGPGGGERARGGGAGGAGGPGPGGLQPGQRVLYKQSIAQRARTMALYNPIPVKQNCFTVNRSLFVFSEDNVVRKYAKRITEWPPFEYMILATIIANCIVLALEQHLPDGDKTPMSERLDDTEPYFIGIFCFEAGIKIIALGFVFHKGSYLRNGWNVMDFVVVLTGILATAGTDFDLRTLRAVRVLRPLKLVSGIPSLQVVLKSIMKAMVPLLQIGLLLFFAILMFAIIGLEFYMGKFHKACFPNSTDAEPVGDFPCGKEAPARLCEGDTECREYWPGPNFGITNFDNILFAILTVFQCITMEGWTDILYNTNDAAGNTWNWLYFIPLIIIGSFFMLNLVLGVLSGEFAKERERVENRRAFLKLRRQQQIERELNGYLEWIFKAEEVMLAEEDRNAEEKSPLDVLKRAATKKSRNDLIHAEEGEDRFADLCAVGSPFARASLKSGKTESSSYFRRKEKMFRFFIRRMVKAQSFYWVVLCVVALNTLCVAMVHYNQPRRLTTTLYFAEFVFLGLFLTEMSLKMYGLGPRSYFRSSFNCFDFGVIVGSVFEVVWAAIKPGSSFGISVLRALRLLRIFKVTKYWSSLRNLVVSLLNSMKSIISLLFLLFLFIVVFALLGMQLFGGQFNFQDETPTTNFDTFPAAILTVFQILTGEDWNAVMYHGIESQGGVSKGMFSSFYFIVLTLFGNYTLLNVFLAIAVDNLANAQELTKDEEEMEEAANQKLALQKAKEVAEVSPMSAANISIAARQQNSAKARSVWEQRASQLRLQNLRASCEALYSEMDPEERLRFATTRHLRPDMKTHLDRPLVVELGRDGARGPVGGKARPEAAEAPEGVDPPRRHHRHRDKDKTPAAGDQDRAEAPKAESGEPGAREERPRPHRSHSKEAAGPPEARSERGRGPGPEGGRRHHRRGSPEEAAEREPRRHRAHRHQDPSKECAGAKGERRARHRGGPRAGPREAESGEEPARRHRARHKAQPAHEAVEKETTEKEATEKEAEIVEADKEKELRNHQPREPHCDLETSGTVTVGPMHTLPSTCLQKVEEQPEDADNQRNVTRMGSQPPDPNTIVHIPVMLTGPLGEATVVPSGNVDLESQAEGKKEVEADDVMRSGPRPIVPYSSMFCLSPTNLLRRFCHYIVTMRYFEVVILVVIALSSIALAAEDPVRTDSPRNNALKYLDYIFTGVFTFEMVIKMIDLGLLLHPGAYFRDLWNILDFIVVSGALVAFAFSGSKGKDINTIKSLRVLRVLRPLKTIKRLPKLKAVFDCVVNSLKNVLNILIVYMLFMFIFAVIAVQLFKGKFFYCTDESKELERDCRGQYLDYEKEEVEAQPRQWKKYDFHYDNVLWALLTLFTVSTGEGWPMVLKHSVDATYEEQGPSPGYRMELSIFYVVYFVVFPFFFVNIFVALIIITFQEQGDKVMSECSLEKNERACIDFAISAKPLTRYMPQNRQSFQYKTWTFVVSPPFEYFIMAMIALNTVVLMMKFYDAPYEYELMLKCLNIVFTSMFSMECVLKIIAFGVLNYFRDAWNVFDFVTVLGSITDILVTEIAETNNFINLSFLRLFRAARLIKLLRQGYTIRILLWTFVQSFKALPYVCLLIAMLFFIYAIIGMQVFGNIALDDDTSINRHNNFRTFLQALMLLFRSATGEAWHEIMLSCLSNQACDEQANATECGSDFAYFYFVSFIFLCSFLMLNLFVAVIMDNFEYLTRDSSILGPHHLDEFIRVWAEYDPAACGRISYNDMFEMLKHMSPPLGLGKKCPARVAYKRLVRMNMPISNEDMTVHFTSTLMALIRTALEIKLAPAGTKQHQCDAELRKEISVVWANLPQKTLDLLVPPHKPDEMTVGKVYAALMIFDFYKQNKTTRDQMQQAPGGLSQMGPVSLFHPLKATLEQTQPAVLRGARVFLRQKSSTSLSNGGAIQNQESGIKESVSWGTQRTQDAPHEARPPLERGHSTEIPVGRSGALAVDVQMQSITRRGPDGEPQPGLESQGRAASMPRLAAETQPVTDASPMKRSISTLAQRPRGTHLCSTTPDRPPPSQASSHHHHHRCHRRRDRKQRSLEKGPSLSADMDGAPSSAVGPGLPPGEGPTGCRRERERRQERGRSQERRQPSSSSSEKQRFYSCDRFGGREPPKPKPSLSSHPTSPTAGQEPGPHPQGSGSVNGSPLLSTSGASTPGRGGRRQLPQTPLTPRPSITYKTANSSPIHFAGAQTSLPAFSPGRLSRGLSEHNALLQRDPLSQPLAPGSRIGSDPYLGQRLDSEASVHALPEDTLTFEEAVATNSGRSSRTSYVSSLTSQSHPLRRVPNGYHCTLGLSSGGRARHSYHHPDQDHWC
T2 sequence (Q02410 whole entry): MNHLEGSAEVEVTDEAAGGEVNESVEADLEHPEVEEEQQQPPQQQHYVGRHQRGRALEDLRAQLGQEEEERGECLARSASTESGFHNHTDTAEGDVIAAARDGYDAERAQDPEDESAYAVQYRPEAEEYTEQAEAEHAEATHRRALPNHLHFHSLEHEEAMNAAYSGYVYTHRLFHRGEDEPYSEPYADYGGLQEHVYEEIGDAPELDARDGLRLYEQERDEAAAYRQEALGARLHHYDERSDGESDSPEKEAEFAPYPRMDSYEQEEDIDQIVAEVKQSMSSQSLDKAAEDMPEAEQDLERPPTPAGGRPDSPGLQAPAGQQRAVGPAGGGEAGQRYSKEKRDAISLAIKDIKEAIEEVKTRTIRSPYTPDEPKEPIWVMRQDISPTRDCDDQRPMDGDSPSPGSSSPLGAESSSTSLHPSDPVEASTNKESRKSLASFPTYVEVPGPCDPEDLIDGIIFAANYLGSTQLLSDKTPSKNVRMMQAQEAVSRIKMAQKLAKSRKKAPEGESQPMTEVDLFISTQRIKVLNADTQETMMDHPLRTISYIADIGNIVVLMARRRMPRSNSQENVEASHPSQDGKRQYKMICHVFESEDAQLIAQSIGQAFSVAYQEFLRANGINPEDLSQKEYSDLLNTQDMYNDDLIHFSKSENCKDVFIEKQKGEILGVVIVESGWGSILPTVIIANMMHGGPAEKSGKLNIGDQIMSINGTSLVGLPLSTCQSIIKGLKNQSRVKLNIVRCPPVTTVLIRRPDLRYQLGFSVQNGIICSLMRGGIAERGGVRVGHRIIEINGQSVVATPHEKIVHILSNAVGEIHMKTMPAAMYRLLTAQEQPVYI
Glucose-6-phosphate 1-dehydrogenase, sequence (P11413 whole entry): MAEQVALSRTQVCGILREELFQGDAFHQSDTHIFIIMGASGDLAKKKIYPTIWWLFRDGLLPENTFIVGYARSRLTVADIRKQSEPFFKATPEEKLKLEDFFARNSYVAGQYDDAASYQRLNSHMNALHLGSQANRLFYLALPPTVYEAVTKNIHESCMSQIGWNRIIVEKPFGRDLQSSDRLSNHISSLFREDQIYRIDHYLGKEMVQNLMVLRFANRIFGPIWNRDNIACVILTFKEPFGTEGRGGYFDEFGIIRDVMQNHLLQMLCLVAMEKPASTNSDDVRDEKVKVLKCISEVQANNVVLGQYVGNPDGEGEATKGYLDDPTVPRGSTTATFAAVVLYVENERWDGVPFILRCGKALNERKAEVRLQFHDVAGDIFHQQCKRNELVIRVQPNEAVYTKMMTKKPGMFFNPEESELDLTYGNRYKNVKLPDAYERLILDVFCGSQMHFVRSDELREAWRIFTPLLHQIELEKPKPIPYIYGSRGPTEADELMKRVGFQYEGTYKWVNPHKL
Hexokinase HKDC1, sequence (Q2TB90 whole entry, the tested form may be a part): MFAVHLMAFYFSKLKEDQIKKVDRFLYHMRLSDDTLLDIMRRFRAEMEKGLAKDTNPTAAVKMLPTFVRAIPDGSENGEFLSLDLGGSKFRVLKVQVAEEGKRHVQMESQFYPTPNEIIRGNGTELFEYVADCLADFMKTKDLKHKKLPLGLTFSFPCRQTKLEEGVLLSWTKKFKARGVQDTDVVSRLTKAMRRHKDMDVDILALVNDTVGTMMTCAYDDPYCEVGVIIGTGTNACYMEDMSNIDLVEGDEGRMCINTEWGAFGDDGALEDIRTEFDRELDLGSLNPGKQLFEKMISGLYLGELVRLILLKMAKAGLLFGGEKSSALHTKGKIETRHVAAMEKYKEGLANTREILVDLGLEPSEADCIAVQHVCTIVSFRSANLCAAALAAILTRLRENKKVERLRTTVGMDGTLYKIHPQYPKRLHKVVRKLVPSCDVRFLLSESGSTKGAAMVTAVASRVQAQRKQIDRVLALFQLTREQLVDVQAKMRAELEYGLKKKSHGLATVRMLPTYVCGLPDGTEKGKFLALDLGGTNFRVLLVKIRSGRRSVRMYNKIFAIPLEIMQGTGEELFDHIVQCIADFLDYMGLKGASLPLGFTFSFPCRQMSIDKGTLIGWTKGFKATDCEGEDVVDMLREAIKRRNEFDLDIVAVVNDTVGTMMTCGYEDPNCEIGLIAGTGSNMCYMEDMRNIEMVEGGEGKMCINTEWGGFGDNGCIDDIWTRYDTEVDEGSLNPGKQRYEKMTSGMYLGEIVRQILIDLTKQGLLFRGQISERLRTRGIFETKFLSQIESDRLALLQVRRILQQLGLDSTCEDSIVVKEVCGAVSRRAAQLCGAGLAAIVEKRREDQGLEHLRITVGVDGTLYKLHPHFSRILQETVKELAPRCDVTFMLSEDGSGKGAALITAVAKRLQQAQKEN

For `Nc1nc2ccccc2n1/N=C/c1ccc(-c2ccccc2)o1`, the concentration at half-maximal activity (AC50) in the assay on A-375 [1] and in the assay with A-375 [4] was > 35 µM (active) each time. The EC50 in assay [2] was 24.4 µM (active); in [3], 5.7 µM (active); in [5], 51.3 µM (active); on Streptokinase A, > 150 µM (not active); in the assay on Streptococcus, > 150 µM (not active).

For `COc1cc2c(cc1OC)-c1cc(NC(C)c3ccccc3)nc(=O)n1CC2` (centres undefined), the IC50 on Hexokinase-1 and on Hexokinase HKDC1 was > 80 µM (inactive) each time.

Regarding `COc1ccc(OC)c2c1C(=O)C(Cl)=C(Cl)C2=O`, the IC50 was 1.64 µM (active) at Beta-arrestin-1; 16.8 µM (not active) in assay [7]; 331 nM (active) in [10]; 48.3 µM (inactive) in assay [12]; 2.02 µM (active) in assay [14]; 24.8 µM (active) in [15]. Also, the IC50 in assay [16] is 7.17 µM (active); at Beta Lactamase it was 6.76 µM (active); in assay [19], more than 32 µM; in assay [21], 9.53 µM (active); with CHO it was 629 nM (active); in [23], 27 µM (inactive). For the same molecule, the results for the IC50 (in assay [24]; at Genome polyprotein) were 11.8 µM (active) and 5.23 µM (active), respectively. Moreover, the EC50 is 4.49 µM (active) with BJ [6]; > 112 µM (not active) in [8]; 3.94 µM (inconclusive) in the assay with BJ [9]; > 120 µM (not active) in assay [2]; > 31.5 µM (inactive) at Beta-galactosidase; 11.7 µM (active) in [13]. Moreover, the EC50 in [5] is > 60 µM (not active); in assay [17] it was 4.56 µM (active); in the assay with BJ [18] it was 5.05 µM (inconclusive); in the assay on BJ [20] it was 5.3 µM (active); in the assay with H4, > 120 µM (not active); in assay [22], 5.7 µM (inconclusive). The figures for the AC50 (in [11]; in the assay with INS1) were 3.03 µM (active) and 6.17 µM (active), respectively. The CC50 in the assay on Vero was 14.1 µM (active).

For the molecule `Cc1ccc2nc(Nc3nc(O)cc(CSc4nnc(C)s4)n3)nc(C)c2c1`, the AC50 at DNA topoisomerase is 6.04 µM (active).

Values taken from ChEMBL document CHEMBL1201862, “PubChem BioAssay data set” (2004).
